Results on eight compounds are retold here after ChEMBL document CHEMBL1121424, “Orally active cephalosporins and penicillins” (J Med Chem, 1980).

Common to all, as to assay type: functional
Assay [1] is filed under the species Mus musculus. Nature of the assay: Tested for the antimicrobial activity against Streptococcus pneumoniae (D137) in mice, perorally. To be noted: po.
Assay [2] is filed under the species Mus musculus. The assay is described as follows: Tested for the antimicrobial activity against Staphylococcus aureus (M202) in mice, perorally. Conditions: po.
Assay [3] deals with Mus musculus. The assay is described as follows: Tested for the antimicrobial activity against Streptococcus pyogenes (ST139) in mice, subcutaneously. Conditions: sc.
Assay [4] relates to Klebsiella pneumoniae. The assay is described as follows: Tested for inhibition of visible growth of Klebsiella pneumoniae.
For assay [5], the species on record is Mus musculus. Nature of the assay: Tested for the antimicrobial activity against Streptococcus pyogenes (St141) in mice, perorally. Conditions: po.
Assay [6] has as its system Proteus mirabilis. The assay is described as follows: Tested for inhibition of visible growth of Proteus mirabilis.
The subject of assay [7] is Enterobacter cloacae. The assay is described as follows: Tested for inhibition of visible growth of Enterobacter cloacae.
Assay [8] relates to Staphylococcus aureus. The assay is described as follows: Tested for inhibition of visible growth of Staphylococcus aureus, benzyl-penicillin sensitive.
The species named for assay [9] is Mus musculus. Nature of the assay: Tested for the antimicrobial activity against Streptococcus pyogenes (ST139) in mice, perorally. Conditions: po.
For assay [10], the system named is Streptococcus pneumoniae. The assay is described as follows: Tested for inhibition of visible growth of Streptococcus pneumoniae.
Assay [11] can be described thus: Tested for inhibition of visible growth of Salmonella schottmuelleri.
Assay [12] has as its system Mus musculus. The assay is described as follows: Tested for the antimicrobial activity against Streptococcus pyogenes (St141) in mice, subcutaneously. To be noted: sc.
Assay [13] relates to Mus musculus. The assay is described as follows: Tested for the antimicrobial activity against Staphylococcus aureus (M202) in mice, subcutaneously. Conditions: sc.
The subject of assay [14] is Klebsiella aerogenes. The assay is described as follows: Tested for inhibition of visible growth of Enterobacter aerogenes.
Assay [15] has as its system Mus musculus. The assay is described as follows: Tested for the antimicrobial activity against Streptococcus pneumoniae (D137) in mice, subcutaneously. To be noted: sc.
Assay [16] concerns Escherichia coli. Nature of the assay: Tested for inhibition of visible growth of Escherichia coli.
Assay [17] deals with Mus musculus. The assay is described as follows: Tested for the antimicrobial activity against Staphylococcus aureus (M240) in mice, subcutaneously. Conditions: sc.
For assay [18], the system named is Enterococcus faecalis. The assay is described as follows: Tested for inhibition of visible growth of Streptococcus faecalis.
In assay [19] the test system is Mus musculus. The assay is described as follows: Tested for the antimicrobial activity against Streptococcus pneumoniae (D815) in mice, subcutaneously. Conditions: sc.
For assay [20], the system named is Pseudomonas aeruginosa. Nature of the assay: Tested for inhibition of visible growth of Pseudomonas aeruginosa.
The species entered for assay [21] is Mus musculus. Nature of the assay: Tested for the antimicrobial activity against Staphylococcus aureus (M240) in mice, perorally. Conditions: po.
For assay [22], the species on record is Mus musculus. Nature of the assay: Tested for the antimicrobial activity against Streptococcus pneumoniae (D815) in mice, perorally. Conditions: po.
Assay [23] deals with Staphylococcus aureus. The assay is described as follows: Tested for inhibition of visible growth of Staphylococcus aureus.
Assay [24] concerns Streptococcus pyogenes. Nature of the assay: Tested for inhibition of visible growth of Streptococcus pyogenes.
For assay [25], the system named is Staphylococcus aureus. Nature of the assay: Tested for the antimicrobial activity against Staphylococcus aureus, benzyl-penicillin sensitive in mice, perorally. Conditions: po.
Assay [26] in a line: (§1) Tested for the antimicrobial activity against Salmonella schottmuelleri in mice.
Assay [27] relates to Streptococcus pyogenes. Nature of the assay: (§2) Tested for the antimicrobial activity against Streptococcus pyogenes in mice.
The subject of assay [28] is Streptococcus pneumoniae. The assay is described as follows: (§3) Tested for the antimicrobial activity against Streptococcus pneumoniae in mice.
Assay [29] deals with Escherichia coli. The assay is described as follows: Tested for the antimicrobial activity against Escherichia coli in mice.
A short description of assay [30]: as §1. The source holds these as a separate data set.
The test system of assay [31] is Staphylococcus aureus. The assay is described as follows: Tested for the antimicrobial activity against Staphylococcus aureus.
Assay [32] concerns Streptococcus pyogenes. The description is as §2. This is another data set of the same source.
Assay [33] deals with Escherichia coli. Nature of the assay: Tested for the antimicrobial activity against Escherichia coli in mice perorally. To be noted: po.
Assay [34] relates to Streptococcus pneumoniae. The description is as §3. This is another data set of the same source.

≈ marks a conversion by molar mass, not a printed value. Bounds are passed on as bounds.

Usually ED50 stands for the dose at which the effect has come halfway, by size or by number of responders. High values mean a need for a large dose, low ones an effect at a small dose. As a reminder, the MIC is the lowest concentration that inhibits growth of the organism. A low value points to a more susceptible organism. On to `CC1(C)SC2C(NC(=O)C(N)c3ccc4c(c3)OCO4)C(=O)N2C1C(=O)O` (stereo unspecified), for which the 50% effective dose (ED50) in assay [1] worked out at 0.35 mg/kg; in assay [2] it was 0.25 mg/kg; in assay [3] it was 0.06 mg/kg; in assay [5] it was 0.22 mg/kg; in [9], 0.29 mg/kg; in assay [12] it was 0.13 mg/kg. For the same compound, the ED50 in assay [13] was 0.53 mg/kg; in [15] it was 0.16 mg/kg; in assay [17], < 0.063 mg/kg; in assay [19], 0.078 mg/kg; in assay [21], 0.32 mg/kg; in assay [22], 0.25 mg/kg. The minimal inhibitory concentration (MIC) in [4] was 6.2 µg/mL (≈ 15.8 µM); in assay [6] it was 25 µg/mL (≈ 63.5 µM); in [7], > 100 µg/mL; in [8], 0.1 µg/mL (≈ 0.254 µM); in [10], ≤ 0.03 µg/mL; in [11], 1.6 µg/mL (≈ 4.07 µM). The minimal inhibitory concentration (MIC) in assay [14] was > 100 µg/mL; in assay [16], 25 µg/mL (≈ 63.5 µM); in [18], 3.1 µg/mL (≈ 7.88 µM); in assay [20] it was > 100 µg/mL; in assay [23], 100 µg/mL (≈ 254 µM); in assay [24], ≤ 0.03 µg/mL.
Turning to `CC1=C(C(=O)O)N2C(=O)C(NC(=O)C(N)c3cccc4c3OCO4)C2SC1` (stereo unspecified), the minimum inhibitory concentration (MIC) was > 200 µg/mL in assay [4]; > 200 µg/mL in assay [6]; > 200 µg/mL in assay [7]; 3.1 µg/mL (≈ 7.92 µM) in assay [8]; 6.2 µg/mL (≈ 15.8 µM) in assay [10]; 100 µg/mL (≈ 255 µM) in assay [11]. In addition, the MIC is > 200 µg/mL in [14]; > 200 µg/mL in assay [16]; > 200 µg/mL in assay [18]; 6.2 µg/mL (≈ 15.8 µM) in assay [23]; 0.4 µg/mL (≈ 1.02 µM) in assay [24].
Take `N[C@H](C(=O)NC1C(=O)N2C(C(=O)O)=C(CSc3c[nH]nn3)CSC12)c1ccc2c(c1)OCO2` (stereo partly specified): the MIC in [4] is > 50 µg/mL; in assay [6], > 50 µg/mL; in [8], 6.2 µg/mL (≈ 12.6 µM); in assay [11], 50 µg/mL (≈ 102 µM); in [16], > 50 µg/mL; in assay [18] it was > 100 µg/mL. In assay [24], this compound yielded a minimal inhibitory concentration (MIC) of 1.6 µg/mL (≈ 3.26 µM).
Consider `Cc1nnc(SCC2=C(C(=O)O)N3C(=O)C(NC(=O)[C@@H](N)c4ccc5c(c4)OCO5)C3SC2)s1` (stereo partly specified), for which the MIC in assay [4] is > 100 µg/mL; in [6] it was > 100 µg/mL; in assay [8], 6.2 µg/mL (≈ 11.9 µM); in assay [10], 0.8 µg/mL (≈ 1.53 µM); in assay [11] it was 50 µg/mL (≈ 95.9 µM); in [16], > 100 µg/mL. Besides, the MIC in assay [18] is > 100 µg/mL; in assay [24], 0.8 µg/mL (≈ 1.53 µM).
Take `CC1=C(C(=O)O)N2C(=O)C(NC(=O)[C@@H](N)c3ccc4c(c3)OCO4)C2SC1` (stereo partly specified): the MIC in assay [4] was > 100 µg/mL; in [6] it was > 100 µg/mL; in [8], 25 µg/mL (≈ 63.9 µM); in assay [10] it was 50 µg/mL (≈ 128 µM); in assay [11], > 100 µg/mL; in [16], > 100 µg/mL. In addition, the MIC was > 100 µg/mL in [18] and 12.5 µg/mL (≈ 31.9 µM) in assay [24].
As for `Cc1nnc(SCC2=C(C(=O)O)N3C(=O)C(NC(=O)[C@H](N)c4ccc5c(c4)CCO5)C3SC2)s1` (stereo partly specified), the ED50 turned out to be 1.8 mg/kg in assay [25]; 31 mg/kg in assay [26]; 0.78 mg/kg in [27]; 1.6 mg/kg in assay [28]; 9.3 mg/kg in assay [29]; 23 mg/kg in assay [30]. The ED50 in [31] was 0.88 mg/kg; in assay [32], 0.44 mg/kg; in assay [33] it was 20 mg/kg; in assay [34], 0.89 mg/kg. In addition, the MIC in assay [4] is 6.2 µg/mL (≈ 11.9 µM); in assay [6], > 100 µg/mL; in assay [7], > 100 µg/mL; in [8] it was 0.8 µg/mL (≈ 1.54 µM); in assay [10], ≤ 0.03 µg/mL; in assay [11] it was 6.2 µg/mL (≈ 11.9 µM). Also, the MIC in assay [14] was 25 µg/mL (≈ 48.1 µM); in [16], 12.5 µg/mL (≈ 24.1 µM); in assay [18], 100 µg/mL (≈ 192 µM); in assay [23], 3.1 µg/mL (≈ 5.97 µM); in assay [24], 0.05 µg/mL (≈ 0.0962 µM).
As to `CC(=O)OCC1=C(C(=O)O)N2C(=O)C(NC(=O)[C@H](N)c3ccc4c(c3)CCO4)C2SC1` (stereo partly specified), the MIC in [4] was 6.2 µg/mL (≈ 13.9 µM); in assay [6] it was 50 µg/mL (≈ 112 µM); in assay [7], 100 µg/mL (≈ 223 µM); in [8], 0.8 µg/mL (≈ 1.79 µM); in assay [10], 0.1 µg/mL (≈ 0.223 µM); in assay [11] it was 3.1 µg/mL (≈ 6.93 µM). The MIC in assay [14] is 100 µg/mL (≈ 223 µM); in assay [16], 25 µg/mL (≈ 55.9 µM); in [18], 50 µg/mL (≈ 112 µM); in [23] it was 3.1 µg/mL (≈ 6.93 µM); in assay [24], 0.1 µg/mL (≈ 0.223 µM).
On to `CC1=C(C(=O)O)N2C(=O)C(NC(=O)C(N)c3ccc4c(c3)OCCO4)C2SC1` (mixture of isomers), for which the minimum inhibitory concentration (MIC) in [4] was 200 µg/mL; in assay [6] it was > 200 µg/mL; in [7], > 200 µg/mL; in assay [8] it was 0.8 µg/mL; in assay [10] it was 1.6 µg/mL; in assay [11] it was 100 µg/mL. Further, the MIC in assay [14] is > 200 µg/mL; in assay [16], 200 µg/mL; in assay [18], > 200 µg/mL; in [23], 6.2 µg/mL; in assay [24] it was 0.8 µg/mL.
